Assays:
[1] = system: CO2-sensitive ab1C neurons; test: single-sensillum electrophysiology, baseline (spontaneous) activity of ab1C neurons; type: cell-based, Drosophila
Method: A number of individual odourants were tested for their ability to inhibit the baseline activity of the neuron using single-sensillum electrophysiology. […] Extracellular single-unit recordings were performed. Odourant stimuli were delivered via Pasteur pipette odour cartridges (see, FIG. 16). Chemicals were of the highest purity available, typically>99% (Sigma-Aldrich). All odourants were diluted in paraffin oil. A controlled volume of air 5 ml/sec was puffed through the odour cartridge containing vapours, and was delivered into a constant humidified airstream of 10 ml/sec that was passed over the fly antenna. […] CO2 stimulus was pulsed through a separate delivery system that delivered controlled pulses (variable 2.5 ml/sec-6.5 ml/sec) into the same humidified airstream, from either a 1%, 5% or 100% tank of CO2 (Airgas). […] Unless mentioned, responses were quantified by subtraction of spontaneous activity from activity during the stimulus. […] Both these compounds are present at electrophysiologically relevant concentrations in Drosophila food sources: 1-hexanol has been detected in various types of fruit including mango, melon, strawberry, passion fruit, muskmelon and banana; 2,3-butanedione is a natural by-product of fermentation by yeast and is thus also present in beer.

[2] = system: CO2-sensitive ab1C neurons; test: single-sensillum electrophysiology, inhibition of CO2 response of ab1C neurons; type: cell-based, Drosophila; settings: for inhibition of CO2 response of ab1C neurons: 0.3% CO2 with varying concentrations of odourant, applied prior to or after CO2 stimulus; for silencing of CO2 neuron beyond the period of application: 2,3-butanedione at concentrations >=10^-1, 1-hexanol at the concentrations tested; for inhibition of CO2 response across tested CO2 concentrations: CO2 0.1% up to ~3%
From the text: Representative traces (top) and mean responses (bottom) from single-sensillum electrophysiology of ab1 sensilla in mutant flies; spikes represent activity of the ab1C neuron. a, 3-sec stimulus of odourant overlaid with a 1-sec application of 0.3% CO2. b, 3-sec stimulus of 0.3% CO2 overlaid with a 1-sec application of odourant. PO=paraffin oil, d4on=2,3-butanedione, 6ol=1-hexanol. n=6, error bars=s.e.m. Spikes per second were counted during the 1-sec stimulus period, and spontaneous activity subtracted. (For data in a and b, T-test, *P<0.001, **P<0.005, ***P<0.01, ****P<0.05) c, ab1C responses to indicated concentrations of CO2 in the presence of solvent (PO), 1-hexanol (6ol) or 2,3-butanedione (d4on). Odourants were tested at 10^−1 dilution. Firing rates were counted in consecutive 0.1-sec bins. n=3, error bars=s.e.m.
Bars indicate stimulus periods for 0.3% CO2, and overlays with 1-hexanol (6ol) or 2,3-butanedione (d4on) at the indicated concentrations. b, Recovery of ab1C responsiveness to a 0.5-sec, 0.3% CO2 stimulus applied every 30-sec after initial treatment with 3-sec stimulus of either d4on (10^−1) or paraffin oil (PO). n=5, error bars=s.e.m., (T-test, *P<0.005, **<0.01, ***P<0.05). c, CO2 response inhibition by structurally related compounds. A 3-sec stimulus of 0.3% CO2 was delivered in combination with 1-sec application of indicated odourant (10^−2) as in a. Percent increase or decrease in mean ab1C response was calculated relative to mean response of paraffin oil. n=5. d, Structures of CO2 and the 4 strongest antagonists. e-f, show mean odourant responses. e, Odourants were tested on ab1C neurons in Or83b2 flies at 10^−2 dilution in paraffin oil. Bars represent values after subtraction of mean response to paraffin oil. n=3. f, Odourants at indicated concentrations were tested on ab3A neuron in wild-type (wt) and ΔHalo (AH) mutants that lack Or22a and Or22b. Bars represent values after subtraction of spontaneous activity. n=5, error bars=s.e.m.
FIG. 16 is a schematic diagram of an odour-delivery system to maintain steady concentration of CO2 in binary mixture experiments. Cartridges were made from Pasteur pipettes with pre-filled cotton wool inserts. […] odorant dissolved in paraffin oil (at specific concentrations) was applied to the cotton wool, and a 1.5 ml disposable tip attached to the open end to make the “odour cartridge”. A controlled “humidified air flow” was generated from a compressed air cylinder by bubbling through water, and passed through a glass tube, and released over the recording arena holding the Drosophila. A C-55 stimulus controller (Syntech) was used to generate an additional activated-charcoal filtered continuous air flow of 5 ml/sec which was delivered into the humidified airstream through a “blank cartridge” with the tip placed through a hole in the tube. To generate controlled odourant stimulus the C-55 stimulus controller was used to switch air flow from the “continuous air flow” to “odor stimulus flow” channel. An additional CO2 stimulus was pulsed through a separate system that delivered controlled pulses (variable 2.5 ml/sec-6.5 ml/sec) into the same humidified airstream, from either a 1%, 5% or 100% cylinder of CO2 (Airgas).
Extracellular single-unit recordings were performed. Odourant stimuli were delivered via Pasteur pipette odour cartridges (see, FIG. 16). Chemicals were of the highest purity available, typically>99% (Sigma-Aldrich). All odourants were diluted in paraffin oil. A controlled volume of air 5 ml/sec was puffed through the odour cartridge containing vapours, and was delivered into a constant humidified airstream of 10 ml/sec that was passed over the fly antenna. […] CO2 stimulus was pulsed through a separate delivery system that delivered controlled pulses (variable 2.5 ml/sec-6.5 ml/sec) into the same humidified airstream, from either a 1%, 5% or 100% tank of CO2 (Airgas). […]

Row | Structure (SMILES) | inhibition of spontaneous activity of ab1C neurons [1] | effect of order of presentation on strength of CO2 response inhibition ([2]; 0.3% CO2) | inhibition of CO2 response of ab1C neurons [2] | silencing of CO2 neuron beyond the period of application [2] | inhibition of CO2 response across tested CO2 concentrations ([2]; odourant 10^-1) | CO2 concentration at which complete inhibition occurs ([2]; odourant 10^-1, lowest concentration tested) [% CO2] | CO2 response at 10 minutes versus neurons not pre-exposed ([2]; after 3-second stimulus of odourant 10^-1, 0.3% CO2) | time until responsiveness to CO2 restored to half-maximal levels ([2]; after 3-second stimulus of odourant 10^-1, 0.5-second 0.3% CO2 every 30 seconds) [min] | silencing of CO2-responsive neurons ([2]; odourant at concentrations >10^-2, 0.3% CO2)
1 | CCCCCCO [1-hexanol] | strongly inhibit | greater if it is presented subsequent to the CO2 stimulus | inhibited CO2 response in a dose-dependent manner | not observed | significant reduction | 0.1 |  |  | 
2 | CC(=O)C(C)=O [2,3-butanedione] | strongly inhibit | of lesser consequence | inhibited CO2 response in a dose-dependent manner | silenced the CO2 neuron well beyond the period of application | complete inhibition |  | significantly lower | ~3 | silences CO2-responsive neurons completely

From patent US8945595B2, “Insect repellent and attractants” (The Regents of the University of California, priority 2009, dated 2015)
